Source: PMC10167348, “Structural mechanisms of TRPM7 activation and inhibition” (Nature Communications, 2023)

Assays:
TRPM7 WT = target: T1, TRPM7 WT (Mus musculus, UniProt Q923J1); assay: Aequorin-based Ca2+ influx assay, inhibition of TRPM7-mediated Ca2+ influx; type: cell-based
T1 construct: expressed in transfected cells; host or cells: HEK 293T
Protocol: (§1) Measurements of [Ca^2+]i were performed as reported previously with several modifications[2],[52],[54]. HEK 293T cells (mycoplasma test negative, ATCC #CRL3216) were maintained at 37 °C and 5% CO2 in DMEM supplemented with 10% fetal calf serum, 100 µg/ml streptomycin and 100 U/ml penicillin (all from Thermo Fisher Scientific). Cells cultured in six-well plates (~60% confluence) were transfected with 2 µg/dish Trpm7 plasmid DNA and 0.1 µg/dish pG5A plasmid DNA encoding eGFP fused to Aequorea victoria aequorin, using Lipofectamine 2000 (Thermo Fisher Scientific). Twenty-four hours after transfection, the cells were washed with Mg^2+-free HEPES-buffered saline (Mg^2+-free HBS) containing 140 mM NaCl, 6 mM KCl, 0.5 mM CaCl2, 10 mM HEPES (pH 7.4) and 5 mM glucose, and mechanically resuspended in the Mg^2+-free HBS. For reconstitution of aequorin, cell suspensions were incubated with 5 µM coelenterazine (Biaffin GmbH) in the Mg^2+-free HBS for 30 min at room temperature. Cells were washed twice by centrifugation at 600 rpm for 5 min (Heraeus Pico 17 microcentrifuge, Thermo Fisher Scientific), resuspended in the Mg^2+-free HBS and aliquoted into 96-well plates (1 × 10^5 cells per well). Luminescence was detected at room temperature using a FLUOstar OPTIMA microplate reader (BMG LABTECH GmbH). To monitor the NS8593- and VER155008-induced inhibition of TRPM7-mediated Ca^2+ influx, the extracellular concentration of Ca^2+ was increased to 5 mM by injecting the CaCl2-containing Mg^2+-free HBS in the absence or presence of the inhibitors. […] To study activation by naltriben, TRPM7-transfected cells were exposed to Mg^2+-free HBS containing different concentrations of the agonist. The experiments were terminated by lysing cells with 0.1% (v/v) Triton X-100 in the Mg^2+-free HBS to record the total bioluminescence. The bioluminescence rates (counts/s) were analyzed at 1-s intervals and calibrated as [Ca^2+]i values using the following equation:1 p[Ca^2+]i=0.332588(−log(k))+5.5593 where k represents the rate of aequorin consumption, i.e., counts/s divided by the total number of counts.
(§2) To determine the IC50 values for NS8593 and VER155008 (EC50 for naltriben), the data were fitted with the following logistic equation:2 Ec=Emin+Emax+Emin/1+c^h/IC50^h where E(c) is the functional effect at the concentration c of the compound, Emin is the minimal effect, Emax is the maximal effect, IC50 (EC50) is the concentration of the compound that produces the half-maximal effect, and h is the Hill coefficient. Fitting of dose-response curves was performed using GraphPad Prism 8.4.0. Data are presented as the mean ± SEM.

TRPM7-N1098Q [1] = target: T2, TRPM7-N1098Q (Mus musculus, UniProt Q923J1, N1098Q); assay: as above; type: cell-based
T2 construct: expressed in transfected cells; host or cells: HEK 293T
T2 sequence (Q923J1 whole entry N1098Q): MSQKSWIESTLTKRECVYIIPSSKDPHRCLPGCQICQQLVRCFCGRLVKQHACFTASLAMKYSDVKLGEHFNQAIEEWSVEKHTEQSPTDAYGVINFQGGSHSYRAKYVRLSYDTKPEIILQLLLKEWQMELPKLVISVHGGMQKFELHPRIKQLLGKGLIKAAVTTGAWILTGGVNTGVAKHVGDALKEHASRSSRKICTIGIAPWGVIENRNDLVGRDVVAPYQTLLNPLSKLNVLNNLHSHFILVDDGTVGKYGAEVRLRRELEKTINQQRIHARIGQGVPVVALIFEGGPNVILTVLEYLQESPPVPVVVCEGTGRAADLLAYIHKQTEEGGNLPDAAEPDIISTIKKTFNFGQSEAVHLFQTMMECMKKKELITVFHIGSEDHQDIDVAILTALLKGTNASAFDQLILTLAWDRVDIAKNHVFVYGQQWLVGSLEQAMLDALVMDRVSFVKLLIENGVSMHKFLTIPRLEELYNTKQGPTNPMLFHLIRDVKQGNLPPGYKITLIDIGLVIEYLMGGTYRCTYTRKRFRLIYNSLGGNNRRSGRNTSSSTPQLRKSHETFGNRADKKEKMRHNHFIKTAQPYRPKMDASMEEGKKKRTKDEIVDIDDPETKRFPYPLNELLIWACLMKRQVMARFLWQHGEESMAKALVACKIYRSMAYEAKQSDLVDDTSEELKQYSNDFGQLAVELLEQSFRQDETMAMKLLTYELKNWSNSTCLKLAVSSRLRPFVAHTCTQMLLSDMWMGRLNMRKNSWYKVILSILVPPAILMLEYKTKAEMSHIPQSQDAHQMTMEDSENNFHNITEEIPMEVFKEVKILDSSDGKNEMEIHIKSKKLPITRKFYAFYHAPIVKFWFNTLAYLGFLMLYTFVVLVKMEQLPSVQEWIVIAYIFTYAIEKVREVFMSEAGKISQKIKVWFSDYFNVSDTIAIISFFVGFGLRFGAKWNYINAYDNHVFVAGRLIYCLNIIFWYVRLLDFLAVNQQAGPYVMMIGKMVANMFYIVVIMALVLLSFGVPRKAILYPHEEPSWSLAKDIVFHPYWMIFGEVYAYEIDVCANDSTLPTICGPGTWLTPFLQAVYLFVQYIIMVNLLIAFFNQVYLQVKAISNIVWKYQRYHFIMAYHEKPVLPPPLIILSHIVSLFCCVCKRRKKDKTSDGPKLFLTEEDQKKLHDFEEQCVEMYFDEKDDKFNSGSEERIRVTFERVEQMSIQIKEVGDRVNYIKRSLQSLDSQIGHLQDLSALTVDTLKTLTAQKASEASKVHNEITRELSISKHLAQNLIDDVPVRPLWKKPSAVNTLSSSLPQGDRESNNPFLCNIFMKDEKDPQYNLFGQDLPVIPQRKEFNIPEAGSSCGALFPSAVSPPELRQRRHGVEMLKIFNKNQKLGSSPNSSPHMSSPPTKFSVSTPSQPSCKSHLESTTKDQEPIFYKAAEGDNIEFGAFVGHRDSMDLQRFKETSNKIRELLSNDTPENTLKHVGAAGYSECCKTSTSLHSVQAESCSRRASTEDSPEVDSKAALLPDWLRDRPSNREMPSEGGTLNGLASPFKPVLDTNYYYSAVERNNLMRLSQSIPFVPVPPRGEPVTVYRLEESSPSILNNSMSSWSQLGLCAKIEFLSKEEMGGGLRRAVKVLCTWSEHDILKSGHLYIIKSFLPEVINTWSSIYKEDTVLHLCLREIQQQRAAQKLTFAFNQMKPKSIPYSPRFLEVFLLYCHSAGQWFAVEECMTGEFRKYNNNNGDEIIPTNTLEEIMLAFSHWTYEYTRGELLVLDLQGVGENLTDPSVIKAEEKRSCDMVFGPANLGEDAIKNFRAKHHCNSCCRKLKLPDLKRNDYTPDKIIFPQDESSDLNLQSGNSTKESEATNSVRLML
Protocol: as §1, §2

TRPM7-A981L = target: T3, TRPM7-A981L (Mus musculus, UniProt Q923J1, A981L); assay: as above; type: cell-based
T3 construct: expressed in transfected cells; host or cells: HEK 293T
T3 sequence (Q923J1 whole entry A981L): as the sequence (Q923J1 whole entry N1098Q) above, with A981L, Q1098N counted along it
Protocol: as §1, §2

[2] = Solubility of the compound (authors' remark); settings: mM range could not be examined
TRPM7-L671A/N752K = target: T4, TRPM7-L671A/N752K (Mus musculus, UniProt Q923J1, L671A/N752K); assay: Aequorin-based Ca2+ influx assay, activation by naltriben; type: cell-based
T4 construct: expressed in transfected cells; host or cells: HEK 293T
T4 sequence (Q923J1 whole entry L671A/N752K): as the sequence (Q923J1 whole entry N1098Q) above, with L671A, N752K, Q1098N counted along it
Protocol: as §1, §2

TRPM7-N1098Q [3] = system: TRPM7-N1098Q; set-up: method as in Schmidt et al., 2022, PMID: 35389104; settings: ref Schmidt et al., 2022, PMID: 35389104; cited from earlier work
TRPM7-N752K = target: T5, TRPM7-N752K (Mus musculus, UniProt Q923J1, N752K); assay: Whole-cell patch-clamp recordings in HEK 293T cells; type: cell-based; settings: 50 and 100 μM NTB
T5 construct: expressed in transfected cells; host or cells: HEK 293T
T5 sequence (Q923J1 whole entry N752K): as the sequence (Q923J1 whole entry N1098Q) above, with N752K, Q1098N counted along it
Protocol: (§3) Patch-clamp experiments were performed as reported previously, with a few modifications[69],[70]. HEK 293T cells grown in 35-mm dishes to ~60% confluence were transiently transfected with Trpm7 cDNAs in the pIRES2-EGFP vector (2 µg/dish). Patch-clamp experiments were conducted 18–22 h after transfection with cells displaying EGFP fluorescence. Whole-cell currents were recorded using an EPC10 patch-clamp amplifier and PatchMaster software (Version V2x69, Harvard Bioscience). Voltages were corrected for a liquid junction potential of 10 mV. Currents were elicited by voltage ramps from –100 mV to +100 mV over 50 ms acquired at 0.5 Hz. The inward and outward current amplitudes were measured at –80 mV and +80 mV and were normalized to the cell size as pA/pF. The capacitance was measured using the automated capacitance cancellation function of EPC10. The standard extracellular solution contained 140 mM NaCl, 2.8 mM KCl, 1 mM CaCl2, 2 mM MgCl2, 10 mM HEPES-NaOH, and 11 mM glucose (all from Sigma-Aldrich). Solutions were adjusted to pH 7.2 using an FE20 pH meter (Mettler Toledo) and to 290 mOsm using a Vapro 5520 osmometer (Wescor Inc). […] For the experiment with naltriben, the intracellular solution contained 120 mM Cs-glutamate, 8 mM NaCl, 10 mM Cs-EGTA, 1.5 mM MgCl2, and 10 mM HEPES-CsOH. The intracellular solution was also adjusted to pH 7.2 and 290 mOsm. Data are presented as the mean ± SEM Unless indicated otherwise, data were compared by unpaired t-test (GraphPad Prism 8.4.0). For multiple comparisons, ordinary one-way ANOVA (GraphPad Prism 8.4.0) was used. Significance was accepted at P ≤ 0.05.

TRPM7-L671A = target: T6, TRPM7-L671A (Mus musculus, UniProt Q923J1, L671A); assay: as above; type: cell-based; settings: 50 and 100 μM NTB
T6 construct: expressed in transfected cells; host or cells: HEK 293T
T6 sequence (Q923J1 whole entry L671A): as the sequence (Q923J1 whole entry N1098Q) above, with L671A, Q1098N counted along it
Protocol: as §3

T1 sequence (Q923J1 whole entry): as the sequence (Q923J1 whole entry N1098Q) above, with Q1098N counted along it

Which results are given for `c1ccc2c(c1)CCC[C@H]2Nc1nc2ccccc2[nH]1` [NS8593]?
remaining activity at 7 µM (TRPM7 WT; [NS8593] 7.0 µM, replicate values, read-out: TRPM7 activity, 100%): 0%; remaining activity at 30 µM (TRPM7 WT; [NS8593] 30.0 µM, replicate values, read-out: TRPM7 activity, 100%): 0%; remaining activity at 50 µM (TRPM7 WT; [NS8593] 50.0 µM, replicate values, read-out: TRPM7 activity, 100%): 0%; Hill coefficient (TRPM7 WT; antagonist, mean ± SEM): –1.73 ± 0.26; IC50 (TRPM7 WT; antagonist, mean ± SEM): 0.91 ± 0.08 µM; remaining activity at 0.3 µM (TRPM7-N1098Q [1]; N1097Q (so in the source), [NS8593] 0.3 µM, replicate values, read-out: TRPM7 activity, 100%): 90.4%; remaining activity at 0.5 µM (TRPM7-N1098Q [1]; N1097Q (so in the source), [NS8593] 0.5 µM, replicate values, read-out: TRPM7 activity, 100%): 95%; remaining activity at 0.7 µM (TRPM7-N1098Q [1]; N1097Q (so in the source), [NS8593] 0.7 µM, replicate values, read-out: TRPM7 activity, 100%): 87.7%; remaining activity at 1 µM (TRPM7-N1098Q [1]; N1097Q (so in the source), [NS8593] 1.0 µM, replicate values, read-out: TRPM7 activity, 100%): 82.4%; remaining activity at 5 µM (TRPM7-N1098Q [1]; N1097Q (so in the source), [NS8593] 5.0 µM, replicate values, read-out: TRPM7 activity, 100%): 64.3%; remaining activity at 7 µM (TRPM7-N1098Q [1]; N1097Q (so in the source), [NS8593] 7.0 µM, replicate values, read-out: TRPM7 activity, 100%): 59.4%; remaining activity at 10 µM (TRPM7-N1098Q [1]; N1097Q (so in the source), [NS8593] 10.0 µM, replicate values, read-out: TRPM7 activity, 100%): 43.2%; TRPM7 activity, 100% (TRPM7-N1098Q [1]; N1097Q (so in the source), [NS8593] 50.0 µM, replicate values): 0.0%; remaining activity at 50 µM (TRPM7-N1098Q [1]; N1097Q (so in the source), [NS8593] 50.0 µM, replicate values, read-out: TRPM7 activity, 100%): 0%; Hill coefficient (TRPM7-N1098Q [1]; N1098Q, antagonist, mean ± SEM): –0.93 ± 0.20; IC50 (TRPM7-N1098Q [1]; N1098Q, antagonist, mean ± SEM): 20.5 ± 10.7 µM; remaining activity at 0.3 µM (TRPM7-A981L; [NS8593] 0.3 µM, replicate values, read-out: TRPM7 activity, 100%): 105%; remaining activity at 0.7 µM (TRPM7-A981L; [NS8593] 0.7 µM, replicate values, read-out: TRPM7 activity, 100%): 114%; remaining activity at 1 µM (TRPM7-A981L; [NS8593] 1.0 µM, replicate values, read-out: TRPM7 activity, 100%): 112%; remaining activity at 3 µM (TRPM7-A981L; [NS8593] 3.0 µM, replicate values, read-out: TRPM7 activity, 100%): 99.4%; Hill coefficient (TRPM7-A981L; antagonist, mean ± SEM): –1.61 ± 0.45; IC50 (TRPM7-A981L; antagonist, mean ± SEM): 11.6 ± 2.75 µM

For `Oc1ccc2c3c1O[C@H]1c4oc5ccccc5c4C[C@@]4(O)[C@@H](C2)N(CC2CC2)CC[C@]314` [Naltriben, naltriben], which solubility [2] is on record?
Its solubility is “limited solubility”.

What about the EC50 (TRPM7-L671A/N752K) of the same compound?
The EC50 was 230 ± 48.9 µM.

And the Hill coefficient (TRPM7-L671A/N752K; N752K/ L671A, agonist, mean ± SEM)?
The Hill coefficient was 2.82 ± 1.38.

And the “response of the N1098Q variant to the agonist” value (TRPM7-N1098Q [3])?
Its value is “did not respond”.

And the “sensitivity of TRPM7 currents to agonist, mutant vs WT” value (TRPM7-N752K)?
Its value is “reduced sensitivity”.

And the “sensitivity of TRPM7 currents to agonist, mutant vs WT” value (TRPM7-L671A)?
The value was “reduced sensitivity”.
